In paper PMC11288129, “Diversely evolved xibalbin variants from remipede venom inhibit potassium channels and activate PKA-II and Erk1/2 signaling” (BMC Biology, 2024):
Marks after values point to notes of the source that are not given here. Positions of bridges follow the written chain, without caps; N, C: chain ends. No end group written: not given here.

Experiments:
hKv2.1 = experiment: TEVC inhibition, Kv2.1; type: cell-based, human; set-up: unit not given here; settings: 1 µM
Source text: (§1) For the expression of Kv channels rat Kv1.1 (GenBank accession number: NM_173095 [88, 89]), rKv1.2 (NM_012970 [90, 91]), human Kv1.3 (NM_002232 [92, 93]), rKv1.4 (NM_012971 [94, 95]), rKv1.6 (NM_023954 [96, 97]), hKv2.1 (NM_004975 [98, 99]), hKv3.1 (NM_004976 [100, 101]), rKv4.2 (NM_031739 [102, 103]), hKv10.1 (NM_172362 [104, 105]), hERG1 [Kv11.1, (NM_000238 [106, 107])], and Shaker IR [from Drosophila melanogaster, (NM_167595 [108, 109])], Nav channels [rNav1.2 (NM_012647 [42, 110]), rNav1.4 (NM_013178 [111, 112]), hNav1.5 (NM_198056 [113, 114]), mNav1.6 (NM_001077499 [115, 116]), BgNav [from Blattella germanica, (DQ466887 [117, 118])] and the auxiliary subunits rβ1 (NM_001271045 [119, 120]), hβ1 (NM_001037 [121, 122]), and TipE [from D. melanogaster, (NM_079196 [109, 123])], and Cav channels hCav3.1 [124, 125], hCav3.2 [126, 127], and hCav3.3 [128, 129] in Xenopus oocytes, the linearized plasmids were transcribed using the T7 or SP6 mMESSAGEmMACHINE transcription kit (Ambion, Austin, TX, USA). Mature female animals were purchased from Nasco (Fort Atkinson, USA) and were housed in the Aquatic Facility (KU Leuven) in compliance with the regulations of the European Union (EU) concerning the welfare of laboratory animals as declared in Directive 2010/63/EU. The use of X. laevis oocytes was approved by the Animal Ethics Committee of the KU Leuven with the license number P186/2019. Stage V–VI oocytes were collected from anesthetized female X. laevis frog as previously described, with the frogs anesthetized by placement in 0.1% tricaine solution (amino benzoic acid ethyl ester; Merck, USA). Oocyte microinjection was performed using a microinjector (Drummond Scientifc®, USA), with a programmed cRNA injection volume of 4—50 nL, depending on the channel subtype. The oocytes were incubated in ND96 solution (96 mM NaCl, 2 mM KCl, 1.8 mM CaCl2, 2 mM MgCl2, and 5 mM HEPES, pH 7.4), supplemented with 50 mg/l gentamicin sulfate.
(§2) Electrophysiological measurements were performed at room temperature (18–22 °C) using the two-electrode voltage clamp (TEVC) technique. Data were obtained using a GeneClamp 500 amplifier (Axon Instruments, USA), and Clampex9 software (Axon Instruments), responsible for data acquisition and storage. Glass micropipettes were produced using glass capillaries (borosilicate WPI 1B120-6) and drawn in a WPI (World Precision Instruments, USA) manual stretcher. The bath and perfusion solutions were either the previously described ND96 (Nav and Kv channels) or calcium-free ND96 supplemented with 10 mM BaCl2 (Cav channels).
(§3) Whole-cell currents of oocytes were recorded 1 to 3 days after injection. Current and voltage electrodes were filled with 3 M KCl and their resistance was adjusted from 0.7 to 2.0 MΩ. Currents were sampled at 20 kHz (Nav channels) and 10 kHz (Kv and Cav channels) and filtered using a four-pole Bessel low-pass Bessel filter, at 1 kHz for sodium, and […] for potassium and calcium, except for the hERG ion channel, in which the currents were filtered at 1 kHz. Leak subtraction was performed using a -P/4 protocol. Kv1.x currents were evoked by 500 ms depolarizations to 0 mV followed by a 500-ms pulse to − 50 mV, from a holding potential of − 90 mV. Kv2.1, Kv3.1, and Kv4.2 currents were elicited by 500 ms pulses to + 20 mV from a holding potential of − 90 mV. Current traces of Kv10.1 were elicited by 2 s depolarization to 0 mV, from a holding potential of − 90 mV. Current traces of hERG1 channel were elicited by applying a + 40 mV prepulse for 2 s followed by a step of − 120 mV for 2 s. Sodium current traces were evoked by a 100 ms depolarization to 0 mV, from a holding potential of − 90 mV. The current–voltage (IV) relationships were determined by 100-ms step depolarizations between − 90 and + 40 mV, using 5 mV increments. […]

BgNav = experiment: TEVC current-voltage relationship (Vhalf), BgNav; type: cell-based, Blattella germanica; set-up: Vhalf, toxin inactivation, BgNav / Vhalf, toxin activation, BgNav: unit not given here; settings: for Vhalf, toxin activation, BgNav / Vhalf, toxin inactivation, BgNav: 1 µM
Source text: as §1, §2, §3

| Sequence | Inhibition data, Kv2.1 (hKv2.1; replicate 1) | Inhibition data, Kv2.1 (hKv2.1; replicate 2) | Inhibition data, Kv2.1 (hKv2.1; replicate 3) | Inhibition data, Kv2.1 (hKv2.1; replicate 4) | Vhalf activation shift, BgNav (BgNav; 1 µM versus control (ND96)) | Vhalf inactivation shift, BgNav (BgNav; 1 µM versus control (ND96)) [mV] | Vhalf, toxin activation, BgNav (BgNav; replicate 1) | Vhalf, toxin inactivation, BgNav (BgNav; replicate 1) | Vhalf, toxin activation, BgNav (BgNav; replicate 2) | Vhalf, toxin inactivation, BgNav (BgNav; replicate 2) | Vhalf, toxin activation, BgNav (BgNav; replicate 3) | Vhalf, toxin inactivation, BgNav (BgNav; replicate 3) | Vhalf, toxin activation, BgNav (BgNav; replicate 4) | Vhalf, toxin inactivation, BgNav (BgNav; replicate 4) |
| --- | --- | --- | --- | --- | --- | --- | --- | --- | --- | --- | --- | --- | --- | --- |
| KRSCIRRFGRCDHRPNDCCYNSSCRCNLWGSNCRCQRMGLFQKWGK (disulfide 4-19, 11-24, 18-35, 26-33) [xib13] | 0.0 | 0.0 | 0.0 | 0.0 | 7.7*** mV | 0.2 | -17.0858 | -50.0173 | -22.9798 | -54.2542 | -20.8319 | -48.9373 | -18.4734 | -48.3513 |
| RLFCIRHHKYCGHRPKRCCSGLFCRCNTFGTNCRCQSKGALGKLI (disulfide 4-19, 11-24, 18-35, 26-33) [xib1] | 0.0 | 0.0 | 0.0 | 0.0 | 2.1 mV | – | -20.8516 | -45.0763 | -24.1418 | -46.3574 | -27.3818 | -51.0148 | -26.78 | – |
